The numbers were not newly measured in patent publication US6331653A, “Process for producing 3,4-dihydroxy-3-cyclobutene-1,2-dione” (priority 1997, dated 2001), which cites them from elsewhere.

Structures are written as SMILES.

For one data set the following is noted: in an aqueous solution at 25° C.; amine compound.
Turning to `Cc1ccccn1` [α-picoline], the pKa value is listed as 5.9.

As for `CN1CCCC1` [N-methylpyrrolidine], the pKa value is 10.5.

As for `CN1CCCCC1` [N-methylpiperidine], the pKa value is recorded as 10.1. For the compound `c1ccc2ncccc2c1` [Quinoline], the pKa value is recorded as 4.8.

The data set is the same for the next values; noted with them: water.
Take `CN(C)c1ccccc1` [N,N-dimethylaniline]: the pKa value is reported as 5.2. Consider `CCCCN(CCCC)CCCC` [tributylamine], for which the pKa value is listed as 9.9. In the case of `CCN(CC)c1ccccc1` [N,N-diethylaniline], the pKa value is on record as 6.6.
